Values after ≈ are worked out from the molar mass of the structure shown.
Columns and labels:
[1] = in vitro; assay type: in vitro ADME; details: rat intestinal microsomes, NADPH, 37° C.
Protocol: 5 μL of a 10 mM stock solution of the Examples were dissolved in 495 μL acetonitrile to afford 500 μL working solution.
The appropriate amount of β-Nicotinamide adenine dinucleotide phosphate reduced form, tetrasodium salt; NADPH-4Na (NADPH) powder was weighed and diluted into a 10 mM MgCl2 solution (working solution concentration: 10 unit/mL; final concentration in reaction system: 1 unit/mL).
The appropriate concentrations of rat intestinal microsome (Xenotech, cat. No R1000.1) working solutions were prepared in 100 mM potassium phosphate buffer.
Cold (4° C.) acetonitrile (ACN) containing 200 ng/mL tolbutamide and 200 ng/mL labetalol as internal standards (IS).
Incubation plates were pre-incubated for 10 minutes at 37° C. with constant shaking. 54 μL was transferred from Incubation plates into a blank plate and then 6 μL NADPH cofactor and 180 μL quenching solution was added to the Incubation plates. 5 μL Example working solution (100 μM) was also added to the Incubation plates and mixed thoroughly.
The T60 Incubation plate was mixed thoroughly and for the 0-min timepoint, 54 μL was transferred into a Quenching plate (containing 180 μL quenching solution and 6 μL NADPH cofactor). 44 μL NADPH cofactor was then added to the T60 Incubation plate and incubated at 37° C. for 60 min while shaking. At 5, 15, 30, 45, and 60 min, 60 μL samples were transferred from T60 Incubation plate into a Quenching plate (containing 180 μl quenching solution). For the NCF60 Incubation plate, 50 μL of buffer was added and mixed thoroughly before incubation at 37° C. for 60 min while shaking, at the 60-min time point 60 μL was transferred to the Quenching plate (containing 180 μl quenching solution). All sampling plates were shaken for 10 min, then centrifuged at 4000 rpm for 20 minutes at 4° C. 80 μL supernatant was transferred into 240 μL HPLC water, and mixed for 10 min.

[2] = Stability in aqueous media (FaSSIF, SGF, PBS); assay type: physicochemical; details: for FaSSIF (pH 6.5) % remaining 1 h / FaSSIF (pH 6.5) % remaining 6 h / FaSSIF (pH 6.5) % remaining 24 h: FaSSIF pH 6.5, 37° C.; for PBS (pH 7.4) % remaining 1 h / PBS (pH 7.4) % remaining 6 h / PBS (pH 7.4) % remaining 24 h: PBS pH 7.4, 37° C.; for SGF (pH 1.2) % remaining 1 h / SGF (pH 1.2) % remaining 6 h / SGF (pH 1.2) % remaining 24 h: SGF pH 1.2, 37° C.
Protocol: 10 μL of a 10 mM stock solution of the Examples were dissolved in 490 μL DMSO to afford […] working solution SGF (pH 1.2):
Dissolve 0.04 g NaCl and 0.064 g pepsin in 0.14 mL HCl and add sufficient water to 20 mL volume. The pH of the test solution was 1.20±0.05.
0.056% (w/v) lecithin, 0.161% (w/v) sodium taurocholate, 0.39% (w/v) monobasic potassium phosphate, 0.77% (w/v) potassium chloride, deionized H2O. The pH of the test solution was 6.5±0.05.
30 mL of 10×PBS (pH7.4) was added into a 50 mL flask and diluted with water. The solution was mixed well and adjusted to pH 7.4 with 1 N HCl.
2 μL of the 200 μL working solution of the Examples was added into 96-deep-well plates for TO, T60, T120, T360 and T1440 timepoints. Duplicates were prepared.
Stability studies were commenced by the addition of 198 μL of the required media (e.g. Simulated Gastric Fluid pH 1.2 [SGF], Simulated Fasted State Intestinal Fluid pH 6.5 [FaSSIF]) and Phosphate Buffered Saline pH 7.4 [PBS]) to each well except TO. The samples were incubated at 37° C. at 600 rpm for the appointed time. The samples at the corresponding timepoint were removed and immediately mixed with 400 μL of cold acetonitrile containing 200 ng/mL tolbutamide and labetalol (internal standard). The samples were centrifuged at 4000 rpm at 4° C. for 20 minutes. 60 μL of the supernatant was removed and mixed with 180 μL purified water and thoroughly mixed and analysed by LCMS (Shimadzu LC 30-AD, ACQUITY UPLC BEH Phenyl 1.7 um 2.1*50 mm Part No. 186002884, with mobile phase A: 0.1% formic acid in water, mobile phase B: 0.1% formic acid in acetonitrile). Formation of parent was also monitored as a metabolite.
Samples were analysed by Mass Spectrometry QTRAP 6500+.

[3] = assay type: in vitro ADME; details: rat plasma, 37° C.
Protocol: 5 μL of a 10 mM stock solution of the Examples were dissolved in 495 μL DMSO to afford 500 μL working solution Assay procedure:
98 μL plasma was added to each well of a 96-well reaction plate, using one plate per timepoint (Blank, TO, T10, T30, T60, and T120). 2 μL of working solution was added to each well of the reaction plates except Blank. Each plate was incubated at 37° C. for the indicated timepoint (0, 10, 30, 60, 120 minutes). At the end of incubation, 400 μL of stop solution (200 ng/mL tolbutamide and 200 ng/mL labetalol in 0.1% FA in ACN) was added to precipitate protein. The plates were then sealed and shaken for 20 minutes before centrifugation at 4000 rpm for 20 minutes. […] Formation of parent was also monitored as a metabolite.

[4] = Solubility in simulated fluids (kinetic solubility, 24 hours); assay type: physicochemical; details: thermodynamic from solid, 24 hour timepoint, room temperature
Protocol: A known quantity of the Examples and control compounds were weighed into a suitable vessel (whatman miniuniprep vials) and a known volume of the required media was added (e.g. Simulated Gastric Fluid pH 1.2 [SGF], Simulated Fasted State Intestinal Fluid pH 6.5 [FaSSIF] or Phosphate Buffered Saline pH 7.4 [PBS]). The samples were subjected to vortex mixing for 2 minutes followed by agitation on a shaker for 24 hours at room temperature at 800 rpm.

[5] = Comparative solubility data for Reference Example 1 (thermodynamic and kinetic); assay type: physicochemical
[6] = simulated gastric fluid, SGF (pH 1.2)

Compound: CCOC(=O)c1ccc2c(c1)nc(OCCOCCCCNCc1cc(F)c(OC(F)(F)F)c(F)c1)c1ccncc12 [Example 8, ethyl 5-(2-(4-((3,5-difluoro-4-(trifluoromethoxy)benzyl)amino)butoxy)ethoxy)benzo[c][2,6]naphthyridine-8-carboxylate]
- CIint(mic) [1]: 37.6 µL/min/mg
- half-life at 1 µM [1]: 61.4 min
- FaSSIF (pH 6.5) % remaining 1 h [2]: 98.5%
- FaSSIF (pH 6.5) % remaining 6 h [2]: 102.6%
- FaSSIF (pH 6.5) % remaining 24 h [2]: 100.4%
- PBS (pH 7.4) % remaining 1 h [2]: 63.2%
- PBS (pH 7.4) % remaining 6 h [2]: 25.3%
- PBS (pH 7.4) % remaining 24 h [2]: 7.6%
- SGF (pH 1.2) % remaining 1 h [2]: 108.2%
- SGF (pH 1.2) % remaining 6 h [2]: 63.8%
- SGF (pH 1.2) % remaining 24 h [2]: 23.3%
- % Example remaining 0 min [3]: 100.0%
- Example concentration (nM) 0 min [3]: 1687.0 nM
- % Example remaining 10 min [3]: 0.2%
- Example concentration (nM) 10 min [3]: 3.1 nM
- solubility kinetic at 24 h [4, 6]: 17.8 µg/mL (≈ 30 µM)
- solubility kinetic at 24 h ([4]; FaSSIF (pH 6.5)): 82.8 µg/mL (≈ 139 µM)

Compound: CC(C)(C)OC(=O)c1ccc2c(c1)nc(OCCOCCCCNCc1cc(F)c(OC(F)(F)F)c(F)c1)c1ccncc12 [Example 9, tert-butyl 5-(2-(4-((3,5-difluoro-4-(trifluoromethoxy)benzyl)amino)butoxy)ethoxy)benzo[c][2,6]naphthyridine-8-carboxylate]
- CIint(mic) [1]: 78.9 µL/min/mg
- half-life at 1 µM [1]: 29.3 min
- FaSSIF (pH 6.5) % remaining 1 h [2]: 92.1%
- FaSSIF (pH 6.5) % remaining 6 h [2]: 98.3%
- FaSSIF (pH 6.5) % remaining 24 h [2]: 96.1%
- PBS (pH 7.4) % remaining 1 h [2]: 80.9%
- PBS (pH 7.4) % remaining 6 h [2]: 27.9%
- PBS (pH 7.4) % remaining 24 h [2]: 10.0%
- SGF (pH 1.2) % remaining 1 h [2]: 102.1%
- SGF (pH 1.2) % remaining 6 h [2]: 57.9%
- SGF (pH 1.2) % remaining 24 h [2]: 19.6%
- solubility kinetic at 24 h [4, 6]: 16.1 µg/mL (≈ 25.9 µM)
- solubility kinetic at 24 h ([4]; FaSSIF (pH 6.5)): 88.3 µg/mL (≈ 142 µM)

Compound: CC(=O)OCOC(=O)c1ccc2c(c1)nc(OCCOCCCCNCc1cc(F)c(OC(F)(F)F)c(F)c1)c1ccncc12 [Example 10, acetoxymethyl 5-(2-(4-((3,5-difluoro-4-(trifluoromethoxy)benzyl)amino)butoxy)ethoxy)benzo[c][2,6]naphthyridine-8-carboxylate]
- CIint(mic) [1]: 61.8 µL/min/mg
- half-life at 1 µM [1]: 37.4 min
- FaSSIF (pH 6.5) % remaining 1 h [2]: 101.7%
- FaSSIF (pH 6.5) % remaining 6 h [2]: 97.1%
- FaSSIF (pH 6.5) % remaining 24 h [2]: 104.4%
- PBS (pH 7.4) % remaining 1 h [2]: 78.8%
- PBS (pH 7.4) % remaining 6 h [2]: 7.1%
- PBS (pH 7.4) % remaining 24 h [2]: 1.1%
- SGF (pH 1.2) % remaining 1 h [2]: 101.5%
- SGF (pH 1.2) % remaining 6 h [2]: 55.9%
- SGF (pH 1.2) % remaining 24 h [2]: 10.1%
- % Example remaining 0 min [3]: 100.0%
- Example concentration (nM) 0 min [3]: 2023.5 nM
- % Example remaining 10 min [3]: 0.1%
- Example concentration (nM) 10 min [3]: 2.1 nM
- solubility kinetic at 24 h [4, 6]: 20.9 µg/mL (≈ 32.8 µM)
- solubility kinetic at 24 h ([4]; FaSSIF (pH 6.5)): 91.3 µg/mL (≈ 143 µM)

Compound: CCC(=O)OCOC(=O)c1ccc2c(c1)nc(OCCOCCCCNCc1cc(F)c(OC(F)(F)F)c(F)c1)c1ccncc12 [Example 12, (propionyloxy)methyl 5-(2-(4-((3,5-difluoro-4-(trifluoromethoxy)benzyl)amino)butoxy)ethoxy)benzo[c][2,6]naphthyridine-8-carboxylate]
- CIint(mic) [1]: 90.8 µL/min/mg
- half-life at 1 µM [1]: 25.4 min
- FaSSIF (pH 6.5) % remaining 1 h [2]: 94.9%
- FaSSIF (pH 6.5) % remaining 6 h [2]: 96.5%
- FaSSIF (pH 6.5) % remaining 24 h [2]: 99.8%
- PBS (pH 7.4) % remaining 1 h [2]: 76.4%
- PBS (pH 7.4) % remaining 6 h [2]: 6.3%
- PBS (pH 7.4) % remaining 24 h [2]: 1.1%
- SGF (pH 1.2) % remaining 1 h [2]: 101.3%
- SGF (pH 1.2) % remaining 6 h [2]: 49.5%
- SGF (pH 1.2) % remaining 24 h [2]: 10.1%
- solubility kinetic at 24 h [4, 6]: 7.4 µg/mL (≈ 11.4 µM)
- solubility kinetic at 24 h ([4]; FaSSIF (pH 6.5)): 97.5 µg/mL (≈ 150 µM)

Compound: CCOC(=O)OCOC(=O)c1ccc2c(c1)nc(OCCOCCCCNCc1cc(F)c(OC(F)(F)F)c(F)c1)c1ccncc12 [Example 13, ((ethoxycarbonyl)oxy)methyl 5-(2-(4-((3,5-difluoro-4-(trifluoromethoxy)benzyl)amino)butoxy)ethoxy)benzo[c][2,6]naphthyridine-8-carboxylate]
- CIint(mic) [1]: 126.2 µL/min/mg
- half-life at 1 µM [1]: 18.3 min
- FaSSIF (pH 6.5) % remaining 1 h [2]: 106.5%
- FaSSIF (pH 6.5) % remaining 6 h [2]: 99.8%
- FaSSIF (pH 6.5) % remaining 24 h [2]: 96.8%
- PBS (pH 7.4) % remaining 1 h [2]: 84.3%
- PBS (pH 7.4) % remaining 6 h [2]: 17.5%
- PBS (pH 7.4) % remaining 24 h [2]: 20.5%
- SGF (pH 1.2) % remaining 1 h [2]: 106.8%
- SGF (pH 1.2) % remaining 6 h [2]: 63.6%
- SGF (pH 1.2) % remaining 24 h [2]: 21.5%
- % Example remaining 0 min [3]: 100.0%
- Example concentration (nM) 0 min [3]: 1601.0 nM
- % Example remaining 10 min [3]: 0.1%
- Example concentration (nM) 10 min [3]: 1.6 nM
- solubility kinetic at 24 h [4, 6]: 17.8 µg/mL (≈ 26.7 µM)
- solubility kinetic at 24 h ([4]; FaSSIF (pH 6.5)): 98 µg/mL (≈ 147 µM)

Compound: CC(C)OC(=O)OCOC(=O)c1ccc2c(c1)nc(OCCOCCCCNCc1cc(F)c(OC(F)(F)F)c(F)c1)c1ccncc12 [Example 14, ((isopropoxycarbonyl)oxy)methyl 5-(2-(4-((3,5-difluoro-4-(trifluoromethoxy)benzyl)amino)butoxy)ethoxy)benzo[c][2,6]naphthyridine-8-carboxylate]
- CIint(mic) [1]: 1604.8 µL/min/mg
- half-life at 1 µM [1]: 1.4 min
- FaSSIF (pH 6.5) % remaining 1 h [2]: 98.2%
- FaSSIF (pH 6.5) % remaining 6 h [2]: 93.6%
- FaSSIF (pH 6.5) % remaining 24 h [2]: 102.8%
- PBS (pH 7.4) % remaining 1 h [2]: 91.7%
- PBS (pH 7.4) % remaining 6 h [2]: 34.3%
- PBS (pH 7.4) % remaining 24 h [2]: 4.4%
- SGF (pH 1.2) % remaining 1 h [2]: 105.1%
- SGF (pH 1.2) % remaining 6 h [2]: 63.8%
- SGF (pH 1.2) % remaining 24 h [2]: 23.2%
- solubility kinetic at 24 h [4, 6]: 15 µg/mL (≈ 22 µM)
- solubility kinetic at 24 h ([4]; FaSSIF (pH 6.5)): 100 µg/mL (≈ 147 µM)

Compound: O=C(O)c1ccc2c(c1)nc(OCCOCCCCNCc1cc(F)c(OC(F)(F)F)c(F)c1)c1ccncc12 [Reference Example 1, 5-(2-(4-((3,5-difluoro-4-(trifluoromethoxy)benzyl)amino)butoxy)ethoxy)benzo[c][2,6]naphthyridine-8-carboxylic acid]
- solubility ([5]; aqueous buffer, kinetic from dmso stock, kinetic, phosphate buffer, initial pH 7.4): 31 µg/mL (≈ 54.8 µM)
- solubility ([5]; aqueous buffer, thermodynamic from solid, thermodynamic, phosphate buffer, initial pH 1.0): 256 µg/mL (≈ 453 µM)
- solubility ([5]; aqueous buffer, thermodynamic from solid, thermodynamic, phosphate buffer, initial pH 7.4): < 0.9 µg/mL
- solubility ([5]; aqueous buffer, thermodynamic from solid, thermodynamic, phosphate buffer, initial pH 10.0): < 0.9 µg/mL
- solubility ([5]; thermodynamic from solid, thermodynamic, FaSSIF, initial pH 6.5): 1.6 µg/mL (≈ 2.83 µM)
